Data from the supplement of paper PMC10307832.

Assays:
Assay in all cases: relative viability (nuclei count vs DMSO), 5 days (fraction); higher = more cells survive
[1] = compound: C1COCCN1C2=NC(=NC3=C2OC4=C3C=CC=N4)C5=CC(=CC=C5)NC(=O)C6=CN=C(C=C6)N + CC(=O)c1c(C)c2cnc(Nc3ccc(N4CCNCC4)cn3)nc2n(C2CCCC2)c1=O [Palbociclib] (partner 0.5 µM)
Summary of the method: (§1)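 The day after seeding in 1536-well plates, lung cancer cell lines were treated by pin tool with a single drug, or with a fixed anchor-drug dose together with five library-drug doses (not always all listed) in √10 steps. After 5 days, a combined fix-and-stain solution (final 0.05% Triton X-100, 1% formaldehyde, 1 ug/ml Hoechst) was added. Nuclei counted on 4× images gave relative viability as treated counts over vehicle counts, reported as the median of duplicate plates.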

SGI-1776 + Trametinib = compound: CN1CCC(CNc2ccc3ncc(-c4cccc(OC(F)(F)F)c4)n3n2)CC1 [SGI-1776] + CC(=O)Nc1cccc(-n2c(=O)n(C3CC3)c(=O)c3c(Nc4ccc(I)cc4F)n(C)c(=O)c(C)c32)c1 [Trametinib] (partner 0.02 µM)
Summary of the method: as §1

SGI-1776 + Alpelisib = compound: CN1CCC(CNc2ccc3ncc(-c4cccc(OC(F)(F)F)c4)n3n2)CC1 [SGI-1776] + Cc1nc(NC(=O)N2CCC[C@H]2C(N)=O)sc1-c1ccnc(C(C)(C)C(F)(F)F)c1 [Alpelisib] (partner 2 µM)
Summary of the method: as §1

Entinostat + Luminespib = compound: Nc1ccccc1NC(=O)c1ccc(CNC(=O)OCc2cccnc2)cc1 [Entinostat] + CCNC(=O)c1noc(-c2cc(C(C)C)c(O)cc2O)c1-c1ccc(CN2CCOCC2)cc1 [Luminespib] (partner 0.01 µM)
Summary of the method: as §1

Cell Line	relative viability ([1]; first compound 0.02 µM)	relative viability ([1]; first compound 0.06325 µM)	relative viability ([1]; first compound 0.2 µM)	relative viability ([1]; first compound 0.6325 µM)	relative viability ([1]; first compound 2 µM)	relative viability (SGI-1776 + Trametinib; first compound 0.08 µM)	relative viability (SGI-1776 + Trametinib; first compound 0.8 µM)	relative viability (SGI-1776 + Trametinib; first compound 2.53 µM)	relative viability (SGI-1776 + Trametinib; first compound 8 µM)	relative viability (SGI-1776 + Alpelisib; first compound 0.08 µM)	relative viability (SGI-1776 + Alpelisib; first compound 0.8 µM)	relative viability (SGI-1776 + Alpelisib; first compound 2.53 µM)	relative viability (SGI-1776 + Alpelisib; first compound 8 µM)	relative viability (Entinostat + Luminespib; first compound 0.02 µM)	relative viability (Entinostat + Luminespib; first compound 0.06325 µM)	relative viability (Entinostat + Luminespib; first compound 0.2 µM)	relative viability (Entinostat + Luminespib; first compound 0.6325 µM)	relative viability (Entinostat + Luminespib; first compound 2 µM)
LOU-NH91	0.541	0.551	0.565	0.49	0.535	0.808	0.766	0.806	0.695	0.783	0.691	0.707	0.533	0.341	0.333	0.371	0.394	0.337
BEN	0.465	0.44	0.498	0.464	0.425	1.03	1.24	0.991	0.791	0.957	1.01	0.896	0.699	0.217	0.32	0.263	0.472	0.349
NCI-H2085	0.405	0.502	0.455	0.445	0.438	0.665	0.612	0.511	0.453	1.01	0.96	0.978	0.844	0.414	0.426	0.384	0.278	0.251
LCLC-103H	0.498	0.453	0.546	0.467	0.403	0.658	0.689	0.633	0.642	0.996	0.862	0.939	0.924	0.979	0.967	0.909	0.715	0.288
NCI-H650	0.308	0.325	0.35	0.345	0.287	1.09	1.01	0.965	0.869	1.19	1.04	1.04	0.921	0.824	0.76	0.829	0.672	0.427
NCI-H1792	0.661	0.74	0.605	0.463	0.384	0.446	0.446	0.437	0.324	0.765	0.663	0.696	0.552	0.5	0.519	0.362	0.392	0.469
EPLC-272H	0.313	–	0.313	0.37	0.329	0.288	0.282	0.307	0.282	0.943	0.952	1.16	0.804	0.209	0.187	0.31	0.262	0.264
EKVX	0.357	0.393	0.353	0.373	0.438	0.386	0.342	0.344	0.31	0.885	0.933	0.869	0.72	0.986	0.913	0.794	0.801	0.427
NCI-H1666	0.627	0.681	0.672	0.622	0.571	0.95	0.846	0.935	0.842	1.06	1	1.01	0.49	1.05	1.19	1.04	0.701	0.445
HCC-15	0.742	0.775	0.67	0.682	0.574	0.262	0.376	0.332	0.338	0.912	0.836	0.895	0.71	0.352	0.301	0.261	0.359	0.257
LCLC-97TM1	0.226	0.26	0.236	0.323	0.162	0.216	0.205	0.195	0.199	0.195	0.238	0.239	0.22	0.939	0.798	0.695	0.808	0.491
NCI-H2347	0.443	0.413	0.4	0.48	0.441	0.323	0.278	0.3	0.277	1.1	1.07	1.1	1.01	0.337	0.378	0.348	0.193	0.081
NCI-H1915	0.516	0.573	0.512	0.613	0.48	0.317	0.281	0.309	0.277	1.09	1.12	1.11	1.03	0.737	0.722	0.821	0.567	0.373
NCI-H647	0.408	0.433	0.38	0.279	0.25	0.621	0.441	0.56	0.323	1.31	1.15	1.1	0.558	0.223	0.182	0.23	0.177	0.133
NCI-H520	0.206	0.236	0.226	0.207	0.189	0.773	0.816	0.686	0.544	0.928	0.94	0.914	0.759	0.192	0.225	0.227	0.281	0.228
NCI-H2087	0.211	0.223	0.235	0.219	0.194	0.151	0.164	0.16	0.17	1.1	1.06	1.18	0.997	0.157	0.125	0.18	0.127	0.143
PC-3 [JPC-3]	0.506	0.512	–	0.592	0.495	0.757	0.73	0.656	0.462	1.1	0.946	1.06	0.971	0.726	0.668	0.5	0.51	0.365
HOP-62	0.529	0.513	0.444	0.426	0.182	0.384	0.359	0.437	0.367	0.914	0.942	0.979	0.807	0.944	0.818	0.824	0.71	0.431
NCI-H2126	0.297	0.367	0.345	0.388	0.36	0.585	0.572	0.293	0.472	0.735	0.733	0.751	0.676	0.815	0.906	0.894	0.766	0.462
NCI-H1793	0.306	0.335	0.317	0.218	0.255	0.418	0.518	0.589	0.444	0.807	0.808	0.974	0.602	0.224	0.157	0.177	0.171	0.161
RERF-LC-KJ	1.04	1.15	1.21	1	0.764	0.917	0.843	0.722	0.707	0.805	0.844	0.926	0.666	1.13	1.16	1.02	0.438	0.322
H3255	0.308	0.308	0.306	0.308	0.305	0.633	0.582	0.577	0.559	0.65	0.747	0.611	0.38	1.02	0.954	0.652	0.613	0.321
EMC-BAC-2	0.54	0.545	0.501	0.498	0.456	0.992	0.966	0.853	0.879	0.741	0.703	0.802	0.723	1.15	1.15	1.02	0.768	0.529
CAL-12T	0.351	0.44	0.285	0.398	0.326	0.433	0.399	0.33	0.288	1.23	1.37	1.66	1.08	0.502	0.402	0.459	0.461	0.364
NCI-H661	0.396	0.402	0.387	0.375	0.374	0.596	0.534	0.525	0.466	0.81	1.06	0.592	0.479	0.838	0.868	0.834	0.642	0.493
SK-MES-1	0.314	0.329	0.294	0.276	0.312	0.546	0.521	0.494	0.324	0.896	0.897	1.01	0.647	0.798	1.03	0.891	0.882	0.353
NCI-H1437	0.3	0.312	0.269	0.295	0.2	0.565	0.524	0.361	0.301	0.867	0.961	0.99	0.634	0.829	0.853	0.552	0.301	0.257
PC-14	0.482	0.562	0.562	0.284	0.189	0.796	0.582	0.384	0.0529	1.12	0.956	0.976	0.757	0.135	0.256	0.151	0.143	0.114
LK-2	0.71	0.646	0.82	0.501	0.356	0.778	0.69	0.63	0.708	0.93	1.06	0.829	0.793	0.18	0.192	0.178	0.188	0.178
